Source: patent US20120114583A1, “USE OF DIHYDROQUERCETIN AND AT LEAST ONE AMINO ACID TO POSITIVELY INFLUENCE THE NATURAL PIGMENTATION PROCESS” (Henkel AG & Co. KGaA, priority 2009, published 2012)

Experiments:
Format in all cases: cell-based
[1] = tested on: MCR1 (melanocortin receptor 1); assay: Differential gene expression of MCR1 by quantitative RT-PCR in organotypical hair follicle cell cultures; details: for MCR1 expression, Mean: 48 h, dermal papilla cell 3D cultures, untreated control = 1
Description: (§1) The ligands involved in melanogenesis, such as SCF or alpha-MSH (melanocyte stimulating hormone alpha) bind to different receptors, through which the corresponding signal is transmitted into the cell interior. The receptor for SCF is ckit, the receptor for alpha-MSH is MCR-1 (melanocortin receptor 1). Substances that bring about a change in the expression of MCR-1 and/or ckit can influence melanogenesis. If an induction (up-regulation or stimulation) of the gene expression of the corresponding receptors occurs, melanogenesis is assumed to be stimulated. Differential gene expression was determined by means of quantitative RT-PCR. After preparing three-dimensional organotypical hair follicle cell cultures from dermal papilla cells on microcarriers, they were incubated for 48 h with dihydroquercetin in two different concentrations. In order to perform PCR the RNA was first isolated from the organotypical cell cultures with the aid of an RNeasy Mini Kit from Qiagen and transcribed into cDNA by reverse transcription. In the subsequent PCR reaction, which is performed for each gene with the aid of gene-specific primers and which serves to amplify the required gene sections, the formation of PCR products is detected online via a fluorescence signal. The fluorescence signal is proportional to the amount of PCR product formed. The stronger the expression of a particular gene, the greater the amount of PCR product formed and the higher the fluorescence signal. To quantify the gene expression the untreated control is set to 1 and the expression of the gene to be determined is referenced thereto (x-times expression). […] Values greater than or equal to the 1.5 times expression or less than or equal to the 0.7 times expression of the untreated control are classed as being expressed in a tangentially differential manner.

[2] = tested on: hair follicle equivalents; assay: Melanin content in hair follicle equivalents; details: for Melanin content d4 Mean: day 4; for Melanin content d7 Mean: day 7, untreated control 181
Experimental: In order to assess the melanin content, three-dimensional organotypical hair follicle cell cultures prepared from dermal papilla cells, hair follicle melanocytes and outer root sheath keratinocytes were treated with dihydroquercetin (10 μM and 100 μM) for 7 days. Untreated cell cultures served as a control. After 4 and 7 days respectively, the hair follicle equivalents were homogenized and the melanin extracted with NaOH (1M)+10% DMSO at 100° C. for 45 min. Aliquots of the specimens were then transferred to a 96-well plate and the extinction was measured at 492 nm. The rise in the melanin content from day 0 to day 7 was evaluated. All values were referenced to the untreated control on day 7 (=100%).

gp100 = assay: Differential gene expression of gp100 by quantitative RT-PCR in organotypical hair follicle cell cultures; details: for gp100 expression, Mean: 48 h, dermal papilla cell 3D cultures, untreated control = 1
Experimental: Gp 100 is a protein that occurs in the membrane of melanosomes and stabilizes them. Since more melanin is produced in the cells following application of substances that positively influence melanogenesis, an increase in the melanosomes necessary for transport also occurs. A substance that induces the gene expression of gp100 is therefore a pigmentation-stimulating active ingredient. Differential gene expression was determined by means of quantitative RT-PCR. After preparing three-dimensional organotypical hair follicle cell cultures from dermal papilla cells on microcarriers, they were incubated for 48 h with dihydroquercetin in two different concentrations. In order to perform PCR the RNA was first isolated from the organotypical cell cultures with the aid of an RNeasy Mini Kit from Qiagen and transcribed into cDNA by reverse transcription. In the subsequent PCR reaction, which is performed for each gene with the aid of gene-specific primers and which serves to amplify the required gene sections, the formation of PCR products is detected online via a fluorescence signal. The fluorescence signal is proportional to the amount of PCR product formed. The stronger the expression of a particular gene, the greater the amount of PCR product formed and the higher the fluorescence signal. To quantify the gene expression the untreated control is set to 1 and the expression of the gene to be determined is referenced thereto (x-times expression). […] Values greater than or equal to the 1.5 times expression or less than or equal to the 0.7 times expression of the untreated control are classed as being expressed in a tangentially differential manner.

ckit = assay: Differential gene expression of ckit by quantitative RT-PCR in organotypical hair follicle cell cultures; details: for ckit expression, Mean: 48 h, dermal papilla cell 3D cultures, untreated control = 1
Description: as §1

## O=C1c2c(O)cc(O)cc2OC(c2ccc(O)c(O)c2)C1O (stereo not drawn) [Dihydroquercetin, 3,3′,4′,5,7-pentahydroxyflavanone]
[1]; 10 μM
  MCR1 expression, Mean: 2.56 x-times expression
[1]; 10 μM, significantly differential = >= 1.8 times or <= 0.5 times untreated control
  MCR1 expression (in words): expressed in a significantly differential manner
[1]; 100 μM
  MCR1 expression (in words): induced
  MCR1 expression, Mean: 5.17 x-times expression
[2]; 10 μM
  Melanin content d4 Mean: 100%
  Melanin content d7 Mean: 254%
[2]; 100 μM
  Melanin content d4 Mean: 100%
  Melanin content d7 Mean: 161%
[2]; both concentration levels tested (10 μM and 100 μM)
  melanin synthesis in comparison to the control (in words): increased markedly
gp100; 10 μM
  gp100 expression, Mean: 0.89 x-times expression
gp100; 100 μM
  gp100 expression (in words): induced
  gp100 expression, Mean: 3.48 x-times expression
ckit; 10 μM
  ckit expression, Mean: 1.32 x-times expression
ckit; 100 μM
  ckit expression (in words): induced
  ckit expression, Mean: 3.55 x-times expression
